Source: PubChem BioAssay (NCI)
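Cells were grown in 96-well plates and exposed to each compound for 48 hours at five concentrations; endpoints were interpolated linearly between bracketing concentrations, or set to the highest concentration if not reached. Here, GI50 denotes the concentration required for 50% inhibition of growth. At the TGI there is no net growth.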

Legend:
Assay in all cases: NCI anticancer screen, dose series, 48 h
[1] = tested on: MOLT-4 leukemia
[2] = tested on: HCT-116 colon
[3] = tested on: UACC-62 melanoma
[4] = tested on: SNB-19 CNS
[5] = tested on: DU-145 prostate
[6] = tested on: BT-549 breast
[7] = tested on: OVCAR-4 ovarian
[8] = tested on: NCI/ADR-RES ovarian
[9] = tested on: MDA-MB-231 breast
[10] = tested on: SR leukemia

Row | SMILES | GI50 [1] | TGI [1] | GI50 [2] | TGI [2] | GI50 [3] | TGI [3] | GI50 [4] | TGI [4] | GI50 [5] | TGI [5] | GI50 [6] | TGI [6] | GI50 [7] | TGI [7] | GI50 [8] | TGI [8] | GI50 [9] | TGI [9] | GI50 [10] | TGI [10]
1 | Cc1nc2ccccn2c1NC(=O)NN1C(=O)CSC1c1ccc(Cl)cc1 (configuration not stated) | > 100 µM | > 100 µM | > 100 µM | > 100 µM | > 100 µM | > 100 µM | > 100 µM | > 100 µM | > 100 µM | > 100 µM | > 100 µM | > 100 µM | > 100 µM | > 100 µM | > 100 µM | > 100 µM | > 100 µM | > 100 µM |  | 
2 | O=C(Nc1ccc(OS(=O)(=O)c2ccc(F)cc2)cc1)C12CC3CC(CC(C3)C1)C2 |  |  | 0.929 µM | > 100 µM | 6.44 µM | > 65 µM | 15.9 µM | 74.4 µM | 13.9 µM | 99.2 µM | 4.37 µM | 75.8 µM | 4.38 µM | 37.7 µM | 3.15 µM | > 100 µM | 4.58 µM | 52.7 µM | 2.03 µM | > 100 µM
3 | COc1ccc2[nH]c(Cl)c(/C=C3/C(=O)Nc4ccccc43)c2c1 |  |  | 0.238 µM | 1.17 µM | 1.11 µM | 2.51 µM | 0.852 µM |  | 0.279 µM | 2.35 µM | 0.185 µM | 0.523 µM | 1.13 µM | 14.3 µM | 0.715 µM | 3.38 µM | < 0.0477 µM | 2.95 µM |  | 
4 | CC(C)C[C@H](CC(=O)O)C(=O)N[C@@H](Cc1c[nH]c2ccccc12)C(=O)N[C@@H](C)c1ccccc1 | > 25 µM | > 25 µM | > 25 µM | > 25 µM | > 25 µM | > 25 µM | > 25 µM | > 25 µM | > 25 µM | > 25 µM | > 25 µM | > 25 µM | > 25 µM | > 25 µM | > 25 µM | > 25 µM | > 25 µM | > 25 µM |  | 
5 | CCN(C(=O)N1CCN(c2cc3c(cc2F)c(=O)c(C(=O)O)cn3C2CC2)CC1)c1nc(-c2ccccc2)cs1 |  |  | 2.64 µM | > 100 µM | 2.05 µM | 5.62 µM | 3.94 µM | > 100 µM | 3.31 µM | > 100 µM | 2.27 µM | 7.91 µM | 2.29 µM | 25.9 µM | 2.88 µM | > 100 µM | 2.11 µM | 5.92 µM | 1.54 µM | 9.92 µM
6 | CNC(=O)c1cc(Oc2ccc3nc(NC(=O)Nc4ccc(CN5CCOCC5)c(C(F)(F)F)c4)sc3c2)ccn1 | 2.57 µM | > 100 µM | 1.78 µM | 3.62 µM | 1.44 µM | 4.58 µM | 3.82 µM | 16.4 µM | 2.73 µM | 9.4 µM | 3.02 µM | 9.18 µM | 1.72 µM | 5.64 µM | 2.07 µM | 5.37 µM | 2.14 µM | 5.8 µM |  | 
7 | CCCCCC/C=C/C#CCCCCCCCC(=O)O |  | > 100 µM |  | > 100 µM |  |  |  | > 100 µM |  | > 100 µM |  | > 100 µM |  | > 100 µM |  | > 100 µM |  | > 100 µM |  | 
8 | Nc1nc(N)c2c(n1)NC(c1sc(Cl)nc1Cl)CC(c1ccccc1)=N2 (configuration not stated) | 4.06 µM | 20.8 µM | 3.7 µM | 13.9 µM | 3.05 µM | 13.9 µM | 5.15 µM | 17.8 µM | 11.2 µM | 24.2 µM | 3.93 µM | 16.1 µM |  |  | 3.13 µM | 12.4 µM | 3.86 µM | 16.5 µM | 2.25 µM | 8.86 µM
9 | CCOC(=O)/C(=C/CC/C(C)=C/CC/C(C)=C/CCc1ccoc1)CC(=O)N1CCCCC1 | 4.03 µM | 9.67 µM | 2.66 µM | 10.2 µM | 2.8 µM | 12.7 µM | 4.05 µM | 41.3 µM | 7.76 µM | 43.4 µM | 4.03 µM | 17.2 µM |  |  | 3.88 µM | 23.7 µM | 1.96 µM | 4.17 µM | 3.11 µM | 16 µM
10 | CN1CCN(CCCOc2cccc3nc(Nc4cc(Cl)cc(Cl)c4)ccc23)CC1 |  |  | 1.94 µM | 3.47 µM | 1.95 µM | 3.68 µM | 1.89 µM | 3.48 µM | 1.69 µM | 3.13 µM | 3.43 µM | 13.9 µM | 2.55 µM | 8.14 µM | 1.72 µM | 3.29 µM | 1.57 µM | 3.12 µM |  | 
11 | Clc1ccc(-c2cc(-c3ccccc3)nc(N3CCN(CCCNc4ccnc5cc(Cl)ccc45)CC3)n2)cc1 | 1.22 µM | 4.35 µM | 0.934 µM | 2.22 µM | 1.79 µM | 3.25 µM |  |  | 1.52 µM | 2.94 µM | 1.68 µM | 3.23 µM | 1.16 µM | 2.61 µM | 1.75 µM | 3.53 µM | 1.67 µM | 3.19 µM |  | 
12 | C[C@@H](Nc1nc(N[C@H](C)C(F)(F)F)nc(-c2cccc(Cl)n2)n1)C(F)(F)F | > 100 µM | > 100 µM | 59.4 µM | > 100 µM |  |  | 23.3 µM | 63.5 µM | 41.6 µM | > 100 µM | 37.9 µM | > 100 µM | 23.3 µM | 96.9 µM | 32.9 µM | > 100 µM | 26.8 µM | > 100 µM | > 100 µM | > 100 µM
13 | Nc1nc(=O)n(C2CC(O)C(CO)O2)cc1F (configuration not stated) | 0.00502 µM |  | 1.49 µM | > 100 µM | < 0.0473 µM | > 100 µM |  |  |  | > 100 µM |  | > 100 µM | 47.7 µM | > 100 µM | 0.107 µM | > 100 µM | 10.7 µM | > 100 µM | > 100 µM | > 100 µM
14 | O=C1/C(=C/c2cccnc2)SC(=S)N1Cc1ccco1 |  | 14.3 µM |  | > 24.9 µM |  | > 82.3 µM |  | > 100 µM |  | 9.22 µM |  | > 100 µM |  | 77.6 µM |  | > 100 µM |  | > 51.1 µM |  | 
15 | N#CCc1c(F)c(F)c(F)c(F)c1F |  | > 100 µM |  | > 100 µM |  | > 100 µM |  | > 100 µM |  | > 100 µM |  | > 100 µM |  |  |  | > 100 µM |  | > 100 µM |  | > 100 µM
